Series [1] has as its system HSV-1. Put plainly: Anti-HSV-1 activity (multiplication and viral spreading) in human conjunctival and corneal cells. In kind it is cell-based, Herpes simplex virus type 1.
A further series has as its system human conjunctival cells. As to the kind of experiment: Cytotoxicity assay, conjunctival cells. In kind it is cell-based. On the procedure:
(§1) Cell viability was determined as previously reported. The absorbance of each well was measured on a Eurogenetics MPR-A 4i microplate reader using a test wavelength of 570 nm and a reference wavelength of 630 nm. Results were expressed as a percentage of absorbance of treated cells with respect to untreated ones. The CC50 was defined as the concentration of compound that caused 50% reduction in cell viability.

For another series, the system named is human corneal cells. Put plainly: Cytotoxicity assay, corneal cells. In kind it is cell-based. As for the experimental part: as §1
Series [2] has as its system HSV-1. Put plainly: Murine model of HSV-1 corneal infection (herpetic stromal keratitis, HSK). In kind it is in vivo, mice.
The next series concerns NF-κB p65 subunit. As to the kind of experiment: NF-κB p65 nuclear translocation in HSV-1 infected IOBA-NHC and HCLE cells (IFI). The conditions noted are these: 40 μM. In kind it is cell-based, human. On the procedure:
IOBA-NHC and HCLE cells monolayers grown on coverslips in 24-well plates were infected with 0.2 ml of HSV-1 KOS (m.o.i.=1) and incubated 1 h at 37° C. Then, the inoculums were removed and cells were coated with a DMEM/F12 without SFB, for 24 h at 37° C.
After incubation, cells were fixed in methanol at −20° C. for 10 min, and processed for indirect immunofluorescence (IFI) with antibodies directed against the glycoprotein D (gD) of HSV-1 and/or the p65 subunit of NF-κB. […]
The images obtained with a 40× magnification were imported into NIH Image J 1.34s program (designed by Wayne Rasband, NIMH, Bethesda). […] We analyzed the total and nuclear fluorescence of the individual cells and a mean fluorescence density was obtained for each. To compare the distribution of fluorescence within the cell, the results were analyzed in a spreadsheet (Excel®). The total fluorescence intensity or nuclear density was calculated as the total or nuclear average per total or nuclear area, respectively. Then, we calculated the percentage of nuclear intensity or the percentage of nuclear intensity with respect to the total intensity for each cell. Non-stimulated cells were processed to establish a baseline of nuclear fluorescence (cut-off value). […]

The subject of the next series is TNF-α. Put plainly: TNF-α secretion in epithelial cells (ELISA). The class given is cell-based, human. Background: In an ELISA, binding on a coated surface is turned into a signal by an enzyme label.
Another series has as its system IL-8. Put plainly: IL-8 secretion in epithelial cells (ELISA). In kind it is cell-based, human.
The next series has as its system IL-6. Put plainly: IL-6 secretion in LPS-stimulated J774A.1 macrophages (ELISA). The class given is cell-based, murine. The conditions noted are these: J774A.1 stimulated with 100 ng/ml LPS 8 h, 40 μM. As for the experimental part: J774A.1 cells grown in 24-well plates were incubated at 37° C. with 100 ng/ml of LPS, in duplicate. After 8 h, supernatants were harvested and murine IL-6 was quantified by commercial ELISA sets (BD OptEIA™, Becton Dickinson, USA) according to manufacturer instructions.

In another series the test system is VEGF promoter. As to the kind of experiment: VEGF expression (pVEGF-LUC reporter) in J774A.1 cells. In kind it is cell-based, murine. The text has this:
The expression vectors pVEGF-LUC (encoding firefly luciferase) and pβ-gal were kindly donated by members of the research group of Dr. Arzt (FCEyN, UBA, Argentina).
J774A.1 cells grown to confluence in 6-well micro-plates were transfected with […] of pVEGF-LUC and pβ-gal plasmids diluted in the Opti MEM medium, without serum and antibiotics, and in the presence of lipofectamine (DNA lipofectamine TM 2000) as a reagent for transfection, according to the manufacturer's instructions. After 4 to 6 h of incubation at 37° C. in 5% CO2 atmosphere, the medium was discarded and replaced by fresh Opti MEM with 10% FBS, without antibiotics, and incubated at 37° C. in atmosphere 5% CO2 for 24 h.
The medium was discarded and cells were stimulated with 100 ng/ml LPS and 1 ng/ml of IL-6 in Opti MEM medium with 10% FBS. After 8 h and 16 h stimulation, the medium was discarded and the cells were lifted by scrapping in 0.1 ml per well of 1× lysis buffer. The samples were stored at −70° C. until processing.
In order to measure luciferase activity, 20 μl of each sample were mixed with 80 μl of substrate for firefly luciferase and measured in a luminometer. In the same samples, β-gal activity was measured in 96-well microplates. To do this, 20 μl of each sample were mixed with 80 μl of substrate for β-galactosidase and incubated at 37° C. until color developed. The absorbances of these mixtures were read in an ELISA reader at 450 nm.
We determined the expression of luciferase as a reporter of VEGF promoter activity values obtained by normalizing the against β-gal activity for each sample.
Thus, J774A.1 cells grown in 6-well microplates were transfected with plasmids pVEGF-LUC and pβ-gal. At 24 h post-transfection, cells were stimulated with 100 ng/ml of LPS and […], in the absence and presence of […] of Compound 1. Then, we measured the expression of VEGF and β-gal in the harvested samples and determined the expression of luciferase as a reporter of VEGF promoter activity, by normalizing the values obtained with those of β-gal activity.

Structures are written as SMILES.

As to `CC[C@@H](C(C)C)[C@H](O)[C@@H](O)[C@@H](C)[C@H]1CC[C@H]2[C@@H]3CCC4=CC(=O)CC[C@]4(C)[C@H]3CC[C@]12C` [Compound 1, (22S,23S)-22,23-dihydroxystigmast-4-en-3-one], the “HSV-1 multiplication and viral spreading” value in the series on HSV-1 [1] (human conjunctival cells) and in the series with HSV-1 [1] (human corneal cells) was “prevents” each time. The results for the “selectivity indices (SI)” value in the series on HSV-1 [1] (human conjunctival cells) and in the series on HSV-1 [1] (human corneal cells) were 13.2 and 9.3, respectively. Besides, the cytotoxicity entry in the series with human conjunctival cells and with human corneal cells was “no cytotoxicity” in each case. For the same compound, the “antiviral activity in vivo” value in the series on HSV-1 [2] (HSV-1 infected mice) was “no antiviral activity in vivo”. The signs of keratitis result with HSV-1 [2] (administered during the first 3 days after HSV-1 infection) is on record as “significantly restrained”. In the series on HSV-1 [2] (murine model of HSV-1 corneal infection, in presence of replicative virus and after immune response triggered), the “incidence and severity of HSK” value is listed as “significantly decreases”. For the same compound, the “incidence and severity of neovascularization in infected corneas” value in the series with HSV-1 [2] (treated from day 1 p.i. onwards, and at onset of disease, 6 days p.i. (data not shown)) is “decreased”. The “percentage of cells exhibiting NF-κB translocation to the nucleus” value amounted to 5.7% in the series on NF-κB p65 subunit (HCLE cells infected with HSV-1 (m.o.i.=1)) and 22.2±1.2% in the series on NF-κB p65 subunit (IOBA-NHC cells infected with HSV-1 (m.o.i.=1)). For the same compound, the TNF-α production result in the series with TNF-α (HSV-1 infected IOBA-NHC cells, 40 μM, 24 h) is listed as “did not affect TNF-α production”. In the series on TNF-α (uninfected treated cells, compound alone), the TNF-α release entry is given as “did not induce TNF-α release by itself”. Further, the IL-8 secretion with IL-8 (HSV-1 infected HCLE cells, 40 μM, 24 h (untreated infected 142.9±0.5)) was 163.6 ± 0.4 pg/mL; with IL-8 (HSV-1 infected IOBA-NHC cells, 40 μM, 24 h (untreated infected 252±7.8)), 471.8 ± 30 pg/mL; with IL-8 (uninfected HCLE cells, compound alone, vs basal level) it was “considerably increased”; in the series with IL-8 (uninfected IOBA-NHC cells, compound alone, vs basal level) it was “considerably increased”. In addition, the IL-6 level in the series with IL-6 is 838 ± 4.2 pg/mL. The “VEGF expression (luciferase normalized to β-gal, VEGF/β-gal)” value with VEGF promoter (100 ng/ml LPS 8 h, Compound 1 (stimulated untreated 93201.5±26770.4)) was determined as 22098.5±4052.4; in the series with VEGF promoter (IL-6 16 h, Compound 1 (stimulated untreated 30929.5±5464)), 17900±2689.7. In addition, the “VEGF expression (luciferase normalized to β-gal)” value in the series with VEGF promoter (no stimulus, compound alone, vs baseline) was “did not induce the expression of VEGF”.

Values taken from patent publication US9187518B2, “Antiangiogenic brassinosteroid compounds” (CONSEJO NACIONAL DE INVESTIGACIONES CIENTIFICAS Y TECNICAS …, priority 2011, dated 2015).
